Measured values as given in patent publication EP0312245A2, “Polycyclic compounds and pharmaceutical compositions thereof” (NORISTAN HOLDINGS LIMITED, priority 1987, dated 1989).
Several values for one entry are separate records, joined by “and”; a condition that tells them apart may be missing. Equal entries are not always repeated.

Columns and labels:
[1] = tested on: isolated rabbit ear preparation; assay: Rabbit ear perfusion test (adrenaline-induced tone, perfusion pressure); details: Oryctolagus cuniculus, Table 6, read-out: Corrected mean % change in perfusion pressurre
Protocol: Female New Zealand White rabbits (approximately 4kg) were anaesthetised with Sagatal ® (0.5ml/kg).
The central ear artery was cannulated using a 20 G catheter and the ear cut off at its base. Heparinised (5ml, 200 IU;ml) Krebs bicarbonate solution was perfused through the ear to expel the blood. The ear was placed in a warming jacket at 37°C and attached via the arterial catheter to the perfusion pump. Perfusion of the ear with aerated (95% 025% C02)Krebs bicarbonate solution at 37° C was commenced at a rate of 6.5ml/min using a Watson Marlow peristaltic pump. The perfusion pressure was monitored continuously using a pressure transducer (Type 4-327-1221, Consoliated Electrodynamics) coupled to a Devices Recorder.
Following an equilibration period of 15 minutes, increased tone was induced in the preparation by addition of adrenaline (1µg/ml) to the perfusion fluid.
After a stable tone was observed, various concentrations of test compounds were injected into the perfusion fluid and examined for their effect on the perfusion pressure. The effect of vehicle (0.2ml, 50% Krebs 50% ethanol) was also tested on the ear preparation.

[2] = tested on: BD-9 rats (normatensive); assay: Antihypertensive test: mean arterial pressure in normotensive BD-9 rats; format: in vivo, rat; set-up: mean arterial BP (individual rats): unit not given here; details: 1mg/kg intravenous; for mean arterial BP (individual rats): rats 1-6, 1 mg/kg; for mean arterial BP, Av. / Average % change in mean arterial BP: standard error of the mean in brackets; for Average % change in mean arterial BP: versus pre-dose control
Protocol: (§1) The effect of Compound 3 on the mean arterial pressure was determined on spontaneously hypertensive rats (SHR ) by means of direct pressure transducing. Groups of 6 male rats of mass 210-300g were used. The average of ten pressure determinations was used. Normotensive (BD-9) rats were used as animal controls, while normal saline solution (containing some traces of polyethylene glycol and ethanol to aid in the solution of the test compounds) was used as solvent and as solvent control.
(§2) After verifying the mass of the animal, it was placed under general anaesthesia by administering 60mgikg pentobarbitone (Sagatal@) intraperitonially. The tracheal tube and carotid artery were both exposed by dissection. An intranule was introduced into the trachea as aid ventilation. The carolid artery was canalated and coupled to a pressure sensor. The sysolic, diastolic and mean arterial pressure were monitored via a Spacelab 514 patient monitor and registered on a Vitatek 551 plotter. During the experiment the exposed tissue of the rat was covered with guaze and kept damp with normal saline.
(§3) The drugs and solvent controls were administered intravenously into the dorsal penile vein after stabilization of the blood pressure (BP) had occurred. After drug administration, the BP was recorded every 5 minutes for a period of 30 min.

[3] = tested on: spontaneously hypertensive rats (SHR ); assay: Antihypertensive test: mean arterial pressure in spontaneously hypertensive rats; format: in vivo, rat; set-up: mean arterial BP (individual rats): unit not given here; details: SHR, 1mg/kg intravenous; for mean arterial BP (individual rats): rats 1-6, 1 mg/kg; for mean arterial BP, Av. / Average % change in mean arterial BP: standard error of the mean in brackets; for Average % change in mean arterial BP: versus pre-dose control
Protocol: as §1, §2, §3

COC(=O)C1=C(C)NC(C)=C(C(=O)OC)C1c1ccccc1[N+](=O)[O-] [Nifedipine]
inhibition at 0.01 mg ([1]; dose 10 μg): 4%
inhibition at 0.0316 mg ([1]; dose 31.6 μg): 0.5%
inhibition at 0.1 mg ([1]; dose 100 μg): 9.5%
inhibition at 0.316 mg ([1]; dose 316 μg): -26%
inhibition at 1 mg ([1]; dose 1000 μg): 39.5%
mean arterial BP (individual rats) ([2]; 5 min): 67 and 59 (2×) and 80 and 74 and 60
mean arterial BP, Av. ([2]; 5 min): 67(4)
Average % change in mean arterial BP ([2]; 5 min): 38(5.5) %
mean arterial BP (individual rats) ([2]; 10 min): 65 and 67 (2×) and 74 and 69 and 66
mean arterial BP, Av. ([2]; 10 min): 68(1)
Average % change in mean arterial BP ([2]; 10 min): 37(4.4) %
mean arterial BP (individual rats) ([2]; 15 min): 68 and 66 (2×) and 65 and 74 and 63
mean arterial BP, Av. ([2]; 15 min): 67(2)
Average % change in mean arterial BP ([2]; 15 min): 38(3.8) %
mean arterial BP (individual rats) ([2]; 20 min): 67 and 60 and 62 and 77 and 65 and 64
mean arterial BP, Av. ([2]; 20 min): 66(2)
Average % change in mean arterial BP ([2]; 20 min): 39(3.1) %
mean arterial BP (individual rats) ([2]; 25 min): 63 (2×) and 55 and 62 and 80 and 67
mean arterial BP, Av. ([2]; 25 min): 65(3)
Average % change in mean arterial BP ([2]; 25 min): 40(2.8) %
mean arterial BP (individual rats) ([2]; 30 min): 61 and 57 and 63 and 79 and 60 and 62
mean arterial BP, Av. ([2]; 30 min): 64(3)
Average % change in mean arterial BP ([2]; 30 min): 41(3.4) %
mean arterial BP (individual rats) ([3]; 5 min): 105 and 67 and 88 and 85 and 80 and 74
mean arterial BP, Av. ([3]; 5 min): 83(5)
Average % change in mean arterial BP ([3]; 5 min): 44(5.4) %
mean arterial BP (individual rats) ([3]; 10 min): 96 and 64 and 104 and 88 and 81 and 74
mean arterial BP, Av. ([3]; 10 min): 85(6)
Average % change in mean arterial BP ([3]; 10 min): 43(6.0) %
mean arterial BP (individual rats) ([3]; 15 min): 95 and 68 and 107 and 93 and 84 and 77
mean arterial BP, Av. ([3]; 15 min): 87(6)
Average % change in mean arterial BP ([3]; 15 min): 41(5.8) %
mean arterial BP (individual rats) ([3]; 20 min): 93 and 69 and 92 and 100 and 83 and 80
mean arterial BP, Av. ([3]; 20 min): 86(5)
Average % change in mean arterial BP ([3]; 20 min): 42(4.2) %
mean arterial BP (individual rats) ([3]; 25 min): 95 and 71 and 93 and 106 and 79 and 84
mean arterial BP, Av. ([3]; 25 min): 88(5)
Average % change in mean arterial BP ([3]; 25 min): 41(4.4) %
mean arterial BP (individual rats) ([3]; 30 min): 95 and 73 and 93 and 110 and 81 and 85
mean arterial BP, Av. ([3]; 30 min): 90(5)
Average % change in mean arterial BP ([3]; 30 min): 40(4.3) %
